Key:
phagosomal ROS = test: Phagosomal ROS in human RPE cells (Fc OXYBURST Green); assay type: cell-based
Experimental: Cellular ROS production was assessed using the ROS-specific probe 2′7′-dichlorodihydrofluorescin diacetate (H2DCFDA, BioChemica, Fluka). Mitochondrial ROS production was assessed using MitoSOX™ Red (Invitrogen). Sub-confluent human RPE cells were transfected with pNull or pAlu. After 24 h cells were loaded for 10 min at 37° C. with 10 μM H2DCFDA or MitoSOX™ Red (Invitrogen) mitochondrial superoxide indicator for live-cell imaging and washed twice with PBS. For H2DCFDA, fluorescence was recorded in 96-well plate using with a Synergy 4 reader (Biotek) using a FITC filter (excitation 485 nm, emission 538 nm). To visualize respiring mitochondria for colocalization with the mitochondrial ROS signal, after PBS wash cells were incubated with MitoTracker Deep Red™ (Invitrogen) for 30 min at 37° C. and then washed twice with PBS. The fluorescent signals were detected using Leica SP-5 or Zeiss Axio Observer Z1 microscopes. Phagosomal ROS production was assessed using the Fc-OXYBURST Green™ assay (Invitrogen). Sub-confluent human RPE cells were transfected with pNull or pAlu, or treated with PMA (0.5 μg/ml; Sigma-Aldrich). […] The total fluorescence from the cells was measured immediately after adding Fc-OXYBURST Green™ with a Synergy 4 reader (Biotek) using FITC filter (excitation 485 nm, emission 538 nm).

RPE [1] = test: pAlu-induced RPE degeneration in wild-type mice, inhibitors given intravitreously; assay type: in vivo; details: WT mice, subretinal pAlu, inhibitor intravitreous, fundus photographs and ZO-1 flat mounts
Experimental: (§1) Subretinal injection and imaging. Subretinal injections (1 μL) were performed using a Pico-Injector (PLI-100, Harvard Apparatus). Plasmids were transfected in vivo using 10% Neuroporter (Genlantis). Fundus imaging was performed on a TRC-50 IX camera (Topcon) linked to a digital imaging system (Sony). RPE flat mounts were immunolabeled using antibodies against zonula occludens-1 (Invitrogen).
Retinal photographs of dilated mouse eyes were taken with a TRC-50 IX camera (Topcon) linked to a digital imaging system (Sony).
Human eyes fixed in 2-4% paraformaldehyde were prepared as eyecups, cryoprotected in 30% sucrose, embedded in optimal cutting temperature compound (Tissue-Tek OCT; Sakura Finetek), and cryosectioned into 10 μm sections. Depigmentation was achieved using 0.25% potassium permanganate and 0.1% oxalic acid. Immunohistochemical staining was performed with the rabbit antibody against NLRP3 (1:100, Sigma Aldrich) or rabbit antibody against Caspase-1 (prediluted, AbCam). Isotype IgG was substituted for the primary antibody to assess the specificity of the staining. Bound antibody was detected with biotin-conjugated secondary antibodies, followed by incubation with ABC reagent and visualized by Vector Blue (Vector Laboratories). Levamisole (Vector Laboratories) was used to block endogenous alkaline phosphatase activity. Slides were washed in PBS, counterstained with neutral red (Fisher Scientific), rinsed with deionized water, air dried, and then mounted in Vectamount (Vector Laboratories). Fluorescent labeling of human tissue was performed with the rabbit antibody against PYCARD (1:50, Clone N-15, Santa Cruz Biotechnology) Immunolabeling was visualized by fluorescently conjugated anti-rabbit secondary antibody (Invitrogen). Tissue autofluorescence was quenched by incubating the sections in 0.3% Sudan black (Fisher Scientific). Sections were mounted in Vectashield with DAPI (Vector Laboratories). Mouse RPE/choroid flat mounts were fixed with 4% paraformaldehyde or 100% methanol, stained with rabbit antibodies against human zonula occludens-1 (1:100, Invitrogen) and visualized with Alexa594 (Invitrogen). All images were obtained using the Leica SP-5 or Zeiss Axio Observer Z1 microscopes.
(§2) Subretinal injections (1 μL) in mice were performed using a Pico-Injector (PLI-100, Harvard Apparatus). In vivo transfection of plasmids coding for two different Alu sequences (pAlu) or empty control vector (pNull) (Bennett et al., 2008; Kaneko et al., 2011; Shaikh et al., 1997) was achieved using 10% Neuroporter (Genlantis). AAV1-BEST1-Cre (Alexander and Hauswirth, 2008) or AAV1-BEST1-GFP were injected at 1.0×10^11 pfu/mL and in vitro transcribed Alu RNA was injected at 0.3 mg/mL.
siRNAs formulated in siRNA buffer (20 mM KCL, 0.2 mM MgCl2 in HEPES buffer at pH 7.5; Dharmacon) or phosphate buffered saline (PBS; Sigma-Aldrich); the TLR4 antagonist Ultra Pure Rhodobacter sphaeroides LPS (LPS-RS, InvivoGen), a peptide inhibitor of MyD88 homodimerization IMG-2005 (IMGENEX), control inhibitor (IMGENEX), recombinant IL-18 (Medical & Biological Laboratories), neutralizing rat antibodies against mouse IL-1β (IMGENEX), neutralizing rat antibodies against mouse IL-18 (Medical & Biological Laboratories), isotype control IgGs (R&D Systems or eBioscience as appropriate), Caspase-1 inhibitor Z-WEHD-FMK (R&D Systems), Caspase control inhibitor Z-FA-FMK (R&D Systems), DPI (Enzo Life Sciences), Mito-TEMPO (Enzo Life Sciences), MitoQ and dTPP (both adsorbed to cyclodextrin and provided by M.P. Murphy, MRC Mitochondrial Biology Unit), and gp91ds-tat and scrambled gp91 ds-tat (both Anaspec), were dissolved in phosphate buffered saline (PBS; Sigma-Aldrich) or dimethyl sulfoxide (DMSO; Sigma-Aldrich), and injected into the vitreous humor in a total volume of 1 μL with a 33-gauge Exmire microsyringe (Ito Corporation). […] As a control, Luc siRNA-chol (17+2 nt) was used with identical dosages. […]

MyD88 = MyD88 knockdown in mouse RPE cells; assay type: cell-based; details: compared to control siRNA
Excerpt: Total RNA was extracted from tissues or cells using Trizol reagent (Invitrogen) according to manufacturer's recommendations, DNase treated and reverse transcribed (QuantiTect, Qiagen). The RT products (cDNA) were amplified by real-time quantitative PCR (Applied Biosystems 7900 HT Fast Real-Time PCR system) with Power SYBR green Master Mix. […] For negative controls, no RT products were used as templates in the QPCR and verified by the absence of gel-detected bands. Relative expressions of target genes were determined by the 2^−ΔΔCt method.
Tissues or cells were homogenized in lysis buffer (10 mM Tris base, pH 7.4, 150 mM NaCl, 1 mM EDTA, 1 mM EGTA, 1% Triton X-100, 0.5% NP-40, protease and phosphatase inhibitor cocktail (Roche)). Protein concentrations were determined using a Bradford assay kit (Bio-Rad) with bovine serum albumin as a standard. […] Protein loading was assessed by immunoblotting using an anti-Vinculin antibody (1:1,000; Sigma-Aldrich). […]

RPE [2] = test: RPE degeneration after subretinal delivery in mice (wild-type and deficient strains); assay type: in vivo
Experimental: as §1
All animal experiments were approved by institutional review committees and in accordance with the Association for Research in Vision and Ophthalmology Statement for the Use of Animals in Ophthalmic and Visual Research. Wild-type C57BL/6J, Cybb^−/−, Tlr3^−1−, Tlr4^−/− (C57BL/10ScNJ), Trif^−/− (Ticam1^Lps2), Ifng^−/−, Ifngr1^−/−, Il1r1^−1−, Il18r1^−1−, Myd88^f/f, and Dicer1^f/f mice were purchased from The Jackson Laboratory. Casp1^−1−, Nbp3^−/−, and Pycard^−/− mice have been previously described (Kanneganti et al., 2006). Unc93b1 mutant mice were generously provided by B. A. Beutler via K. Fitzgerald. Myd88^−/− and Tlr7^−/− mice were generously provided by S. Akira via T. Hawn and D. T. Golenbock. Mda5^−/− mice were generously provided by M. Colonna. […] Mavs^−/− mice were generously provided by Z. Chen via K. Fitzgerald. For all procedures, anesthesia was achieved by intraperitoneal injection of 100 mg/kg ketamine hydrochloride (Ft. Dodge Animal Health) and 10 mg/kg xylazine (Phoenix Scientific), and pupils were dilated with topical 1% tropicamide (Alcon Laboratories).
as §2
Bone marrow transplantation was used to create Myd88^−/− chimera mice wherein the genetic deficiency of Myd88 was confined to either circulating cells (Myd88^−/− →WT) or nonhematopoietic tissue (WT→Myd88^−/−). Briefly, bone marrows were collected from femur and tibia of congenic WT or Myd88^−/− donor mice by flushing with RPMI1640. After two washing steps, cells were resuspended in RPMI1640. 1×10^7 cells in 150 μL of RPMI1640 were injected into the tail vein of irradiated […] mice. Two chimera groups were generated: WT→Myd88^−/− (WT cells into Myd88^−/− mice) and Myd88→WT (Myd88 cells into WT mice). 2 months after bone marrow transfer, mice were injected subretinally with Alu RNA, vehicle, pAlu, or pNull, and monitored for RPE degeneration 7 days later. […]

Caspase-8 = Caspase-8 activation in the RPE of wild-type mice (fluorometric assay); assay type: in vivo; details: subretinal injection
Experimental: RPE tissues were homogenized in lysis buffer (10 mM Tris base, pH 7.4, 150 mM NaCl, 1 mM EDTA, 1 mM EGTA, 1% Triton X-100, 0.5% NP-40, protease and phosphatase inhibitor cocktail (Roche)). Protein concentrations were determined using a Bradford assay kit (Bio-Rad) with bovine serum albumin as a standard. The […] activity was measured using Caspase-8 Fluorimetric Assay (R&D) in according to the manufacturer's instructions.

With CCCCCCCCCCCCCC(=O)O[C@@H]1[C@@H](C)[C@@]2(O)[C@@H](C=C(CO)C[C@]3(O)C(=O)C(C)=C[C@@H]23)[C@@H]2C(C)(C)[C@]12OC(C)=O [PMA, phorbol myristate acetate] as the compound, how does the “phagosomal ROS” value (phagosomal ROS) read?
Its value is “induced phagosomal ROS”.

For “5′-CAGAGCAAGGAAUGUGAdTdT-3′ [cholesterol-conjugated Myd88 siRNA]”, which “pAlu-induced RPE degeneration” value (RPE [1]) is on record?
The value was “inhibited”.

And the “pAlu-induced RPE degeneration” value (RPE [1]; listed as MyD88-targeting short interfering RNA)?
The value was “inhibited RPE degeneration”.

And the “target gene and protein abundance (MyD88)” value (MyD88)?
Its value is “reduces”.

What does the source list for “Recombinant IL-18: recombinant IL-18 (Medical & Biological Laboratories)”?
RPE degeneration after subretinal delivery (RPE [2]; CD95−/− (Fas lpr) mice): did not induce RPE degeneration; RPE degeneration after subretinal delivery (RPE [2]; Casp1−/− mice): induced RPE degeneration; RPE degeneration after subretinal delivery (RPE [2]; Faslg−/− (Fasl gld) mice): did not induce RPE degeneration; RPE degeneration after subretinal delivery (RPE [2]; WT mice): induced RPE degeneration; activation of Caspase-8 (Caspase-8; listed as IL-18): induced activation of caspase-8; activation of Caspase-8 (Caspase-8; listed as recombinant IL-18): induced activation of Caspase-8
